In data set [1] the target is T1, α-Glucosidase from Saccharomyces cerevisiae (Saccharomyces cerevisiae, UniProt P53341). Description: biochemical. Type of data set: biochemical. To be noted: for IC50: mean ± SD, enzyme 0.1 U/mL, p-NPG 0.25 mM, pH 6.8, 37 °C, read-out: α-Glucosidase inhibition (IC50).
The target of data set [2] is T2, α-amylase from hog pancreas (Sus scrofa, UniProt P00690).
T2 sequence (P00690 16-511): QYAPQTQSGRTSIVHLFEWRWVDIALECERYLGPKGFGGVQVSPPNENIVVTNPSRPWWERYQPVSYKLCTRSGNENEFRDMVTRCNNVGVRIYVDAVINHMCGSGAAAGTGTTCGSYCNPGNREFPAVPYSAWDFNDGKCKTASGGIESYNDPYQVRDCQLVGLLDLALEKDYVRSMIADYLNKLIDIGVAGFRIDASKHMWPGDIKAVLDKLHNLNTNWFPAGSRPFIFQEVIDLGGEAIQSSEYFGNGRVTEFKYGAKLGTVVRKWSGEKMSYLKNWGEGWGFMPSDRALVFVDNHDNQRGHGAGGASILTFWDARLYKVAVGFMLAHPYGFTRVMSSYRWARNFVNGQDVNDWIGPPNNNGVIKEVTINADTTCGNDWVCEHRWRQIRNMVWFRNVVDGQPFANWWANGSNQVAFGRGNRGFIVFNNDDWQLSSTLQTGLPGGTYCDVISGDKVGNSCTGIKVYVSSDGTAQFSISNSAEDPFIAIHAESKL
Description: α-Amylase inhibition assay (starch/DNS, absorbance 540 nm).

The target in data set [3] is T1, α-Glucosidase from Saccharomyces cerevisiae. Kind of data set: α-Glucosidase inhibition kinetics (V vs [E], Lineweaver–Burk plots). Type of data set: biochemical. Conditions: 3a 0-0.5 μM. As to the method:
To probe into the inhibition mechanism of OA derivatives (3a–3t) against α-glucosidase, compound 3a with the strongest inhibitory activity was selected as the representative compound for the enzyme inhibitory kinetic analysis. […] The inhibition kinetic behaviours were investigated using the Lineweaver–Burk plots.
The enzyme inhibition kinetics analysis was investigated using previously reported method with minor modifications[25]^,[26]. In brief, inhibitory effect was determined from the plots of absorbance change of OA derivatives at different concentrations with enzyme at different concentrations. The inhibition type was measured based on the Lineweaver–Burk plot of absorbance change of OA derivatives at different concentrations with p-NPG substrate at different concentrations.

In another data set the test system is HepG2 cells. Description: Cells cytotoxicity assay (MTT), HepG2. Conditions: 24 h treatment, under concentration of 100 µM. Type of data set: cell-based. The protocol: (§1) 3T3–L1 or HepG2 cells were cultured in Dulbecco’s modified Eagle medium (DMEM) with 10% foetal bovine serum (FBS), 100 IU/mL penicillin and 100 IU/mL streptomycin at 37 °C under 5% CO2. 3T3-L1 cells (2 × 10^3) or HepG2 cells ([…]) were plated onto 96-well plate ([…]) and incubated for 24 h. After treated with compound (3a or 3f) for 24 h, the cells were added […] (0.5 mg/mL) and incubated for 4 h. Then […] was added to dissolve the blue insoluble MTT formazan. Finally, the absorbance was measured at 570 nm using a microplate reader. Each sample was performed in triplicate.

A further data set deals with 3T3-L1 cells. Kind of data set: Cells cytotoxicity assay (MTT), 3T3-L1. It counts as cell-based. To be noted: 24 h treatment, under concentration of 100 µM. The protocol: as §1
Data set [4] addresses T2, α-amylase from hog pancreas. Kind of data set: α-Amylase inhibition kinetics (V vs [E], Lineweaver–Burk plots). It counts as biochemical. On the set-up: α-amylase from hog pancreas (EC3.2.1.1); from tissue; host or cells: hog pancreas. Conditions: 3f 0-15.0 μM. The source says: Compound 3f with the strongest inhibitory activity against α-amylase was selected as the representative compound for the enzyme inhibitory kinetic analysis.
The enzyme inhibition kinetics analysis was investigated. The operation method was similar with the assay of α-glucosidase, except the concentrations of test compound, enzyme and substrate.

Entries after “also recorded” stand apart in the source; their conditions may differ.

T1 sequence (P53341 whole entry): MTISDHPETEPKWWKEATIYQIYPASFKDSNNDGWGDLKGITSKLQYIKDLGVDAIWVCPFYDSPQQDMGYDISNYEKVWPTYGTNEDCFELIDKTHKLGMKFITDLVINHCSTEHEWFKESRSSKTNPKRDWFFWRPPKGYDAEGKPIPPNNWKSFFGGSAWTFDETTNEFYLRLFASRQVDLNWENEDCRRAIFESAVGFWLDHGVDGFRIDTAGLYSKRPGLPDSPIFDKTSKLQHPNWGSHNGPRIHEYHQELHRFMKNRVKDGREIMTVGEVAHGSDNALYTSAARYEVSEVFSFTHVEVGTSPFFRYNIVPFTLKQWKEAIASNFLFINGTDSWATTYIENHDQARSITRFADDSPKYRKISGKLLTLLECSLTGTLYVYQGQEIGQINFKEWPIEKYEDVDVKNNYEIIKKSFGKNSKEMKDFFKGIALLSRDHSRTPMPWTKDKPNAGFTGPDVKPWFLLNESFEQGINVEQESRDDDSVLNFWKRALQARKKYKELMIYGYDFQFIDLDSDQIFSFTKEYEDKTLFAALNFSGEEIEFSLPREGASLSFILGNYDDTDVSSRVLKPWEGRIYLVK

What is called IC50 is the concentration that gives 50% inhibition. For the compound `CC1(C)CC[C@]2(C(=O)O)CC[C@]3(C)C(=CCC4[C@@]5(C)CC/C(=N\OC(=O)c6ccc(F)cc6)C(C)(C)C5CC[C@]43C)C2C1` (stereo partly shown) [Compound 3n], the IC50 in data set [1] was determined as 1.96 ± 0.25 µM; in data set [2], 70.2 ± 2.53 µM.
The like results for `CC1(C)CC[C@]2(C(=O)O)CC[C@]3(C)C(=CCC4[C@@]5(C)CC/C(=N\OC(=O)c6ccc(Cl)cc6)C(C)(C)C5CC[C@]43C)C2C1` (stereo partly shown) [Compound 3o] were, in that order, 1.74 ± 0.14 µM and 26.3 ± 1.61 µM.
The like results for `COc1ccc(C(=O)O/N=C2\CC[C@@]3(C)C(CC[C@]4(C)C3CC=C3C5CC(C)(C)CC[C@]5(C(=O)O)CC[C@]34C)C2(C)C)cc1` (stereo partly shown) [Compound 3m] were, in that order, 1.1 ± 0.1 µM and 35.5 ± 2.41 µM.
The like results for `CC1(C)CC[C@]2(C(=O)O)CC[C@]3(C)C(=CCC4[C@@]5(C)CC/C(=N\OC(=O)c6ccc([N+](=O)[O-])cc6)C(C)(C)C5CC[C@]43C)C2C1` (stereo partly shown) [Compound 3r] were, in that order, 1.41 ± 0.12 µM and 70.7 ± 1.25 µM.
As for `CC1(C)CC[C@]2(C(=O)O)CC[C@]3(C)C(=CCC4[C@@]5(C)CC/C(=N\OC(=O)/C=C/c6ccc(F)cc6)C(C)(C)C5CC[C@]43C)C2C1` (stereo partly shown) [Compound 3d], the IC50 was determined as 1.45 ± 0.12 µM in data set [1] and 17.5 ± 1.52 µM in data set [2].
On the same counts, the results for `Cc1ccc(/C=C/C(=O)O/N=C2\CC[C@@]3(C)C(CC[C@]4(C)C3CC=C3C5CC(C)(C)CC[C@]5(C(=O)O)CC[C@]34C)C2(C)C)cc1` (stereo partly shown) [Compound 3b] are 0.68 ± 0.03 µM and 15.3 ± 1.41 µM.
Consider `CC1(C)CC[C@]2(C(=O)O)CC[C@]3(C)C(=CCC4[C@@]5(C)CC/C(=N\OC(=O)c6ccc(O)cc6)C(C)(C)C5CC[C@]43C)C2C1` (stereo partly shown) [Compound 3t], for which the IC50 worked out at 0.91 ± 0.04 µM in data set [1] and 152 ± 4.24 µM in data set [2].
Regarding `Cc1ccc(C(=O)O/N=C2\CC[C@@]3(C)C(CC[C@]4(C)C3CC=C3C5CC(C)(C)CC[C@]5(C(=O)O)CC[C@]34C)C2(C)C)cc1` (stereo partly shown) [Compound 3l], the values for the IC50 in data set [1] and in data set [2] were 0.99 ± 0.05 µM and 55.3 ± 2.39 µM, respectively.
On to `CC1(C)CC[C@]2(C(=O)O)CC[C@]3(C)C(=CCC4[C@@]5(C)CC/C(=N\OC(=O)/C=C/c6ccc7c(c6)OCO7)C(C)(C)C5CC[C@]43C)C2C1` (stereo partly shown) [Compound 3i], for which the IC50 came out at 0.71 ± 0.02 µM in data set [1] and 17.9 ± 1.21 µM in data set [2].
The like results for `COc1ccc(/C=C/C(=O)O/N=C2\CC[C@@]3(C)C(CC[C@]4(C)C3CC=C3C5CC(C)(C)CC[C@]5(C(=O)O)CC[C@]34C)C2(C)C)cc1` (stereo partly shown) [Compound 3c] were, in that order, 0.89 ± 0.07 µM and 25.4 ± 1.17 µM.
As for `CC1(C)CC[C@]2(C(=O)O)CC[C@]3(C)C(=CCC4[C@@]5(C)CC/C(=N\OC(=O)c6ccccc6)C(C)(C)C5CC[C@]43C)C2C1` (stereo partly shown) [Compound 3k], the IC50 in data set [1] amounted to 0.67 ± 0.04 µM; in data set [2], 25.6 ± 1.66 µM.
The like results for `CC1(C)CC[C@]2(C(=O)O)CC[C@]3(C)C(=CCC4[C@@]5(C)CC/C(=N\OC(=O)/C=C/c6ccc([N+](=O)[O-])cc6)C(C)(C)C5CC[C@]43C)C2C1` (stereo partly shown) [Compound 3h] were, in that order, 1.36 ± 0.03 µM and 18.3 ± 1.92 µM.
Take `CC1(C)CCC2(C(=O)O)CCC3(C)C(=CCC4C5(C)CCC(=NOC(=O)C=Cc6ccccc6)C(C)(C)C5CCC43C)C2C1` (stereo not shown) [Compound 3a]: in data set [3] (Lineweaver–Burk plots), the “Inhibition type towards α-glucosidase” value is reported as “mixed-type inhibitor; also recorded: mixed types”. The “Reversibility of α-glucosidase inhibition” value in data set [3] (plots of V vs [E]) is “reversible”. In addition, the IC50 came to 0.35 ± 0.06 µM in data set [1] and 7.86 ± 1.24 µM in data set [2]. Moreover, in data set [1] (ratio of IC50 vs OA), the “α-glucosidase inhibition, times stronger than OA” value is listed as ~11 times. The “α-glucosidase inhibition, times stronger than acarbose” value in data set [1] (ratio of IC50 vs acarbose) is on record as ~1900 times. In addition, in the data set with HepG2 cells, the “Cytotoxicity to HepG2 cells” value is “non-cytotoxic”. In the data set on 3T3-L1 cells, the “Cytotoxicity to 3T3-L1 cells” value is listed as “non-cytotoxic”.
For `CC1(C)CC[C@]2(C(=O)O)CC[C@]3(C)C(=CCC4[C@@]5(C)CC/C(=N\OC(=O)/C=C/c6ccc(Cl)cc6)C(C)(C)C5CC[C@]43C)C2C1` (stereo partly shown) [Compound 3e], the results for the IC50 in data set [1] and in data set [2] were 0.95 ± 0.06 µM and 5.64 ± 1.29 µM, respectively.
On the same counts, the results for `CC1(C)CC[C@]2(C(=O)O)CC[C@]3(C)C(=CCC4[C@@]5(C)CC/C(=N\OC(=O)c6ccc(Br)cc6)C(C)(C)C5CC[C@]43C)C2C1` (stereo partly shown) [Compound 3p] are 1.81 ± 0.05 µM and 15.9 ± 1.75 µM.
The like results for `CC1(C)CC[C@]2(C(=O)O)CC[C@]3(C)C(=CCC4[C@@]5(C)CC/C(=N\OC(=O)c6ccc(C(F)(F)F)cc6)C(C)(C)C5CC[C@]43C)C2C1` (stereo partly shown) [Compound 3q] were, in that order, 3.43 ± 0.17 µM and 33.6 ± 1.93 µM.
The like results for `CC1(C)CC[C@]2(C(=O)O)CC[C@]3(C)C(=CCC4[C@@]5(C)CC/C(=N\OC(=O)/C=C/c6ccc(C(F)(F)F)cc6)C(C)(C)C5CC[C@]43C)C2C1` (stereo partly shown) [Compound 3g] were, in that order, 3.13 ± 0.13 µM and 12.6 ± 2.37 µM.
On to `CC1(C)CC[C@]2(C(=O)O)CC[C@]3(C)C(=CCC4[C@@]5(C)CC/C(=N\OC(=O)/C=C/c6ccc(O)cc6)C(C)(C)C5CC[C@]43C)C2C1` (stereo partly shown) [Compound 3j], for which the values for the IC50 in data set [1] and in data set [2] were 0.82 ± 0.09 µM and 70.8 ± 2.31 µM, respectively.
As for `CC1(C)CCC2(C(=O)O)CCC3(C)C(=CCC4C5(C)CCC(=NOC(=O)C=Cc6ccc(Br)cc6)C(C)(C)C5CCC43C)C2C1` (stereo not shown) [Compound 3f], the values for the 50% inhibitory concentration (IC50) in data set [1] and in data set [2] were 1.28 ± 0.03 µM and 3.8 ± 0.65 µM, respectively. Moreover, the “α-amylase inhibition, times better than OA” value in data set [2] (ratio of IC50 vs OA) is given as ~25 times. Further, the “α-amylase inhibition, times better than acarbose” value in data set [2] (ratio of IC50 vs acarbose) was ~26 times. Besides, in the data set on HepG2 cells, the “Cytotoxicity to HepG2 cells” value is on record as “non-cytotoxic”. Further, in data set [4] (Lineweaver–Burk plots), the “Inhibition type towards α-amylase” value is “mixed types; also recorded: mixed-type inhibitor”. Also, the “Reversibility of α-amylase inhibition” value in data set [4] (plots of V vs α-amylase concentration) was “reversible”. The “Cytotoxicity to 3T3-L1 cells” value in the data set on 3T3-L1 cells was “non-cytotoxic”.
As for `CC1(C)CC[C@]2(C(=O)O)CC[C@]3(C)C(=CCC4[C@@]5(C)CC/C(=N\OC(=O)c6ccc7c(c6)OCO7)C(C)(C)C5CC[C@]43C)C2C1` (stereo partly shown) [Compound 3s], the results for the IC50 in data set [1] and in data set [2] were 1.37 ± 0.06 µM and 18.7 ± 1.29 µM, respectively.

(Values after paper PMC8757604 (Journal of Enzyme Inhibition and Medicinal Chemistry, 2022).)
